Source: ChEMBL document CHEMBL4428102, “Discovery of an Orally Bioavailable Gonadotropin-Releasing Hormone Receptor Antagonist” (J Med Chem, 2016)

Legend:
[1] = Cmax in Sprague-Dawley rat at 10 mg/kg, po by mass spectrometry; assay type: ADME, organism-based; parameters: dose 10 mg/kg, route oral; details: in vivo
[2] = Cmax in beagle dog at 10 mg/kg, po by mass spectrometry; assay type: ADME, organism-based, Canis lupus familiaris; parameters: dose 10 mg/kg, route oral; details: in vivo
[3] = Cmax in castrated cynomolgus monkey at 10 mg/kg, po by mass spectrometry; assay type: ADME, organism-based, Macaca fascicularis; parameters: dose 10 mg/kg, route oral; details: male, in vivo
[4] = Tmax in Sprague-Dawley rat at 10 mg/kg, po by mass spectrometry; assay type: ADME, organism-based; details: in vivo
[5] = Tmax in beagle dog at 10 mg/kg, po by mass spectrometry; assay type: ADME, organism-based, Canis lupus familiaris; details: in vivo
[6] = Tmax in castrated cynomolgus monkey at 10 mg/kg, po by mass spectrometry; assay type: ADME, organism-based, Macaca fascicularis; details: male, in vivo
[7] = Half life in Sprague-Dawley rat at 10 mg/kg, po by mass spectrometry; assay type: ADME, organism-based; details: in vivo
[8] = Half life in beagle dog at 10 mg/kg, po by mass spectrometry; assay type: ADME, organism-based, Canis lupus familiaris; details: in vivo
[9] = Half life in castrated cynomolgus monkey at 10 mg/kg, po by mass spectrometry; assay type: ADME, organism-based, Macaca fascicularis; details: male, in vivo
[10] = AUC (infinity) in Sprague-Dawley rat at 10 mg/kg, po by mass spectrometry; assay type: ADME, organism-based; parameters: dose 10 mg/kg, route oral, time infinity; details: in vivo
[11] = AUC (infinity) in beagle dog at 10 mg/kg, po by mass spectrometry; assay type: ADME, organism-based, Canis lupus familiaris; parameters: dose 10 mg/kg, time infinity, route oral; details: in vivo
[12] = AUC (infinity) in castrated cynomolgus monkey at 10 mg/kg, po by mass spectrometry; assay type: ADME, organism-based, Macaca fascicularis; parameters: dose 10 mg/kg, route oral, time infinity; details: male, in vivo
[13] = Oral bioavailability in Sprague-Dawley rat at 10 mg/kg by mass spectrometry; assay type: ADME, organism-based; details: in vivo
[14] = Oral bioavailability in beagle dog at 10 mg/kg by mass spectrometry; assay type: ADME, organism-based, Canis lupus familiaris; details: in vivo
[15] = Oral bioavailability in castrated cynomolgus monkey at 10 mg/kg by mass spectrometry; assay type: ADME, organism-based, Macaca fascicularis; details: male, in vivo
Cynomolgus monkey [16] = experiment: Reduction in serum LH level in castrated male cynomolgus monkey at 30 mg/kg, po administered as single dose after 12 hrs by RIA method; assay type: functional; details: Macaca fascicularis
[17] = AUC in castrated male cynomolgus monkey at 30 mg/kg, po administered as single dose; assay type: ADME, organism-based, Macaca fascicularis; details: in vivo
[18] = Cmax in castrated male cynomolgus monkey at 30 mg/kg, po administered as single dose; assay type: ADME, organism-based, Macaca fascicularis; parameters: dose 30 mg/kg, route oral; details: in vivo
Cynomolgus monkey [19] = experiment: Reduction in serum LH level in castrated male cynomolgus monkey at 30 mg/kg, po administered as single dose after 24 hrs by RIA method; assay type: functional; details: Macaca fascicularis

Cc1c(N2CCN(Cc3ccc(C(F)(F)F)o3)CC2)c(=O)n(C[C@H](NCCCC(=O)O)c2ccccc2)c(=O)n1Cc1c(F)cccc1C(F)(F)F.Cl
Cmax [1]: 500 ng/mL
Cmax [2]: 2700 ng/mL
Cmax [3]: 300 ng/mL
Tmax [4]: 1.6 h
Tmax [5]: 1.3 h
Tmax [6]: 1.7 h
half-life [7]: 1.9 h
half-life [8]: 1.7 h
half-life [9]: 3.5 h
AUC(0-inf) [10]: 1500 ng·h/mL
AUC(0-inf) [11]: 9600 ng·h/mL
AUC(0-inf) [12]: 1300 ng·h/mL
bioavailability [13]: 15.6%
bioavailability [14]: 52.6%
bioavailability [15]: 13.2%
inhibition in vivo at 30 mg/kg (Cynomolgus monkey [16]): 84%
AUC [17]: 37000 ng·h/mL
Cmax [18]: 5500 ng/mL
inhibition in vivo at 30 mg/kg (Cynomolgus monkey [19]): 76%
